Converted amounts (≈) assume the structure as drawn. Values belong to the molecule of their own block, whether it stands above or below them.
What was measured:
[1] = kinetic solubility in FaSSIF (Pion µDissolution monitor); type: physicochemical; details: thermodynamic from solid, FaSSIF pH 6.5, 37° C
Protocol: SDD prototypes were evaluated for kinetic solubility in FaSSIF (Fasted State Simulated Intestinal Fluid, pH = 6.5) using the Pion µDissolution monitor with a tip path length of 2 mm. Data were collected using AUPro software over a period of 18 hours in 20 mL of each media, heated to 37 ± 2 °C. A stir speed of 250 rpm for the duration of the experiment.

[2] = solubility in aqueous solution at 37°C; type: physicochemical
[3] = solvent solubility screening of micronized Vamorolone (visual, solvent added in aliquots); type: physicochemical; details: for 200 µl / +100 µl: 10 mg Vamorolone; for 200 µl: dissolved after 200 µl; for +100 µl: dissolved after further 100 µl
Protocol: The solubility of micronized Vamorolone was assessed in several typical organic solvent systems suitable for use in spray drying.
A quantity of 10 mg of Vamorolone was dispensed into a 2 mL HPLC vial. The experimental design was to add the test solvent in aliquots, 200 µl and 100 µl. After each aliquot addition the sample was to be mixed on a vortex mixer for 1 minute and solubility assessed visually. Observations were also made after one hour of solvent addition.

[4] = target: T1, glucocorticoid receptor (Homo sapiens, UniProt P04150); details: pre-clinical data, background statement; cited from earlier work
T1 sequence (P04150 1-777): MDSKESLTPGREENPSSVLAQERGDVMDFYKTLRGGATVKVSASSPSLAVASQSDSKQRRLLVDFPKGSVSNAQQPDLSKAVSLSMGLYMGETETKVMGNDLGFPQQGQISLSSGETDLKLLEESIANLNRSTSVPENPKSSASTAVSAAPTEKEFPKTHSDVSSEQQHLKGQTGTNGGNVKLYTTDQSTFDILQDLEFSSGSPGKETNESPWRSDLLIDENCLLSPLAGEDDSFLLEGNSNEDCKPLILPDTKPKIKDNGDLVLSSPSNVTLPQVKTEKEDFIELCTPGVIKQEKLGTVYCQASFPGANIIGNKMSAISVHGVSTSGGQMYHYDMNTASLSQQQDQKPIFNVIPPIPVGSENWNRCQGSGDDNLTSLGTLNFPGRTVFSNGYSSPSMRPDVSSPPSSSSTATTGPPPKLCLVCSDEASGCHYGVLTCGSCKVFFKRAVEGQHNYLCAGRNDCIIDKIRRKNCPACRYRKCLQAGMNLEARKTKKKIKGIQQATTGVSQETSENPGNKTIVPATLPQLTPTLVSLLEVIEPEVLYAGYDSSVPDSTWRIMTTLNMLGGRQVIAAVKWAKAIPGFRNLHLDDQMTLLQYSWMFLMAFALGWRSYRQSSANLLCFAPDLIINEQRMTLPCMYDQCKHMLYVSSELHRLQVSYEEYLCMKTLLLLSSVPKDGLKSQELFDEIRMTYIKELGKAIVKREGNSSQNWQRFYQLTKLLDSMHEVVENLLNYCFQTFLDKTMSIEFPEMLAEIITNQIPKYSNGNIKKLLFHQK

[5] = test system: inflammatory states; details: multiple mouse models of inflammatory states, background statement; cited from earlier work
[6] = storage of cryo-milled amorphous Vamorolone; type: physicochemical; details: room temperature in a closed container

- solubility at 5 min ([1]; T=5 min): 46.4 µg/mL (≈ 130 µM)
- solubility at 30 min ([1]; T=30 min): 48.9 µg/mL (≈ 137 µM)
- solubility at 1 h ([1]; T=1 hour): 49.2 µg/mL (≈ 138 µM)
- solubility at 4 h ([1]; T=4 hour): 49 µg/mL (≈ 137 µM)
- solubility at 12 h ([1]; T=12 hour): 48.8 µg/mL (≈ 137 µM)
- solubility at 18 h ([1]; T=18 hour): 48.7 µg/mL (≈ 137 µM)
Compound: C[C@@H]1C[C@H]2[C@@H]3CCC4=CC(=O)C=C[C@]4(C)C3=CC[C@]2(C)[C@@]1(O)C(=O)CO [Crystalline API, 17α,21-dihydroxy-16α-methylpregna-1,4,9(11)-triene-3,20-dione]

- solubility [2]: ~40 µg/mL (≈ 112 µM)
- Observation 1 hour after solubility assessment ([3]; Acetone): Hazy
- Observation after solubility assessment ([3]; Acetone): Hazy
- 200 µl ([3]; Acetone): ×
- +100 µl ([3]; Acetone): ×
- Observation 1 hour after solubility assessment ([3]; DCM): Clear
- Observation after solubility assessment ([3]; DCM): Clear
- clear solution ([3]; DCM (dichloromethane):methanol (1:1)): 50 mg/mL
- clear solution ([3]; DCM (dichloromethane):methanol (1:3)): 50 mg/mL
- Observation 1 hour after solubility assessment ([3]; DCM:Methanol (1:1)): Clear
- Observation after solubility assessment ([3]; DCM:Methanol (1:1)): Clear
- 200 µl ([3]; DCM:Methanol (1:1)): ✔
- Observation 1 hour after solubility assessment ([3]; DCM:Methanol (1:3)): Clear
- Observation after solubility assessment ([3]; DCM:Methanol (1:3)): Clear
- 200 µl ([3]; DCM:Methanol (1:3)): ✔
- 200 µl ([3]; DCM): ×
- +100 µl ([3]; DCM): ✔
- Observation 1 hour after solubility assessment ([3]; Ethanol): Hazy
- Observation after solubility assessment ([3]; Ethanol): Hazy
- 200 µl ([3]; Ethanol): ×
- +100 µl ([3]; Ethanol): ×
- Observation 1 hour after solubility assessment ([3]; Ethyl Acetate): Hazy
- Observation after solubility assessment ([3]; Ethyl Acetate): Hazy
- 200 µl ([3]; Ethyl Acetate): ×
- +100 µl ([3]; Ethyl Acetate): ×
- Observation 1 hour after solubility assessment ([3]; Isopropanol): Hazy
- Observation after solubility assessment ([3]; Isopropanol): Hazy
- 200 µl ([3]; Isopropanol): ×
- +100 µl ([3]; Isopropanol): ×
- Observation 1 hour after solubility assessment ([3]; Methanol): Clear
- Observation after solubility assessment ([3]; Methanol): Clear
- 200 µl ([3]; Methanol): ×
- +100 µl ([3]; Methanol): ✔
- Observation 1 hour after solubility assessment ([3]; Water): Hazy
- Observation after solubility assessment ([3]; Water): Hazy
- 200 µl ([3]; Water): ×
- +100 µl ([3]; Water): ×
Compound: C[C@@H]1C[C@H]2[C@@H]3CCC4=CC(=O)C=C[C@]4(C)C3=CC[C@]2(C)[C@@]1(O)C(=O)CO [Vamorolone, 17α,21-dihydroxy-16α-methylpregna-1,4,9(11)-triene-3,20-dione]
- binding to the glucocorticoid receptor [4]: binds potently
- efficacy [5]: efficacy similar to prednisolone

- physical stability of the amorphous form [6]: recrystallize within days
Compound: C[C@@H]1C[C@H]2[C@@H]3CCC4=CC(=O)C=C[C@]4(C)C3=CC[C@]2(C)[C@@]1(O)C(=O)CO [amorphous Vamorolone, 17α,21-dihydroxy-16α-methylpregna-1,4,9(11)-triene-3,20-dione]

Reference: EP4413976B1, “A NEW VAMOROLONE PREPARATION EXHIBITING IMPROVED SOLUBILITY” (Santhera Pharmaceuticals (Schweiz) AG, priority 2023, dated 2024)
